*1 amine or outer side, *2 acyl side, *3 side chain or, on linkers, in order; H or OH if unused. Where a SMILES comes first, the peptide text is derived from it. The star is where a group is joined. X1 = O=C(CCCC[C@@H]1SC[C@@H]2NC(=O)N[C@@H]21)NCCCOCCOCCOCCCN*; Suc = O=C(CCC(=O)[*:2])[*:1]
Tests used:
MAGI3 PDZ 2 = biological target: T1, MAGI3 PDZ 2 (Homo sapiens, UniProt Q5TCQ9); test: Holdup assay, MAGI3-2; format: binding; settings: for BI: MAGI3-2
T1 construct: made in house; host or cells: E. coli
Procedure: The holdup assay was performed on a Tecan freedom Evo200 robot with 384-well plates in singlicate for the three 11-mer PTEN variants and the 13-mer PTEN peptide as described in [31, 32]. Briefly, prior to interaction assay, 2.5 μL of streptavidin resin was saturated in each well with 20 μL of biotinylated PBM peptides (42 μM) and then washed twice with an excess of free biotin, while the reference resin was incubated only with biotin. Right before the holdup experiment, the PDZ library was spiked with an internal standard of lysozyme. Then, the biotin- or PBM-saturated resin was incubated, each in a distinct well of a 384-well plate, with complete cell lysates diluted so that the concentration of the tag-PDZ present in the crude extract is adjusted at 4 μM. After a sufficient time to reach complex equilibrium (15 min.), a fast and mild filtration step is performed and the tag-PDZ concentrations were measured by capillary electrophoresis instrument (LabChip GXII, PerkinElmer, Massachusets, USA). Standard markers were used to convert migration time into molecular weight on the LabChip software and inappropriate molecular weight markers were corrected or excluded.
For filtered data, the BI was extracted with the following equation (Eq 1) that estimates the depleted fraction after superimposition of the sample and reference electropherograms: BI=Iref−Ilig/Iref (1) where Iref and Ilig are the intensities of the tag-PDZ peaks measured, for each PDZ domain/PBM peptide interaction pair, in the biotin reference and the PBM electropherograms, respectively.
BIs were transformed into dissociation constants (KD) using the following formula: KD=([PDZtot]−BI·[PDZtot])·([PBMtot]−BI·[PDZtot])/BI·[PDZtot] (2) where [PDZtot] and [PBMtot] correspond to the total concentrations of the PDZ domain (usually around 4 μM) and the PBM peptide used during the assay. Since the PBMtot concentration in the resin during the holdup assay parameter may differ from one peptide to another and remains unknown, it is impossible to directly convert BI values into KD constants. We systematically determined the KD constants for a subset of PDZ/PBM pairs by competitive FP. […] For each PBM, the average peptide concentration was calculated after outlier rejection based on the absolute distances from the median as compared to three times the standard deviation (3σ rule), with never more than 2 values rejected.

ARHGEF12-1 = biological target: T2, ARHGEF12-1 (Homo sapiens, UniProt Q9NZN5); test: Holdup assay, ARHGEF12-1; format: binding
T2 sequence (Q9NZN5 72-151): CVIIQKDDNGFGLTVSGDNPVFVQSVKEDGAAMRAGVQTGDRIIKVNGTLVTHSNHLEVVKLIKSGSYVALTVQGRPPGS

GIPC1-1 = test: Holdup assay, GIPC1-1; format: binding, human
GIPC2-1 = biological target: T3, GIPC2-1 (Homo sapiens, UniProt Q8TF65); test: Holdup assay, GIPC2-1; format: binding
T3 sequence (Q8TF65 1-315): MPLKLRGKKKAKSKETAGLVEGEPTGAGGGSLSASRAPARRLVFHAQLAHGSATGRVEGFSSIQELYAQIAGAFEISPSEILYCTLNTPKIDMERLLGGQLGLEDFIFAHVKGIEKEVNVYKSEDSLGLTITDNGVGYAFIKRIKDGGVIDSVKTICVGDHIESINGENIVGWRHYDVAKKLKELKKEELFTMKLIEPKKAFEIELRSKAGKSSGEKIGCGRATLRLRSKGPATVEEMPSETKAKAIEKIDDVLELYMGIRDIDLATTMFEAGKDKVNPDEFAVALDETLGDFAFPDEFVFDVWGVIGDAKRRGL

GRIP1-6 = test: Holdup assay, GRIP1-6; format: binding, human
GRIP2-3 = test: Holdup assay, GRIP2-3; format: binding, human
LIN7B-1 = test: Holdup assay, LIN7B-1; format: binding, human
GRIP1-1 = test: Holdup assay, GRIP1-1; format: binding, human
GRIP2-4 = test: Holdup assay, GRIP2-4; format: binding, human

T1 sequence (Q5TCQ9 410-492 limits assumed): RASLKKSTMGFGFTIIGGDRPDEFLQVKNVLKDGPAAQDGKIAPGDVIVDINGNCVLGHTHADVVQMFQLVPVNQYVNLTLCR

| SMILES | Kd (MAGI3 PDZ 2) | BI (MAGI3 PDZ 2) | BI (ARHGEF12-1) | Kd (ARHGEF12-1) | BI (GIPC1-1) | LogKD (GIPC1-1) | LogKD (GIPC2-1) | BI (GRIP1-6) | LogKD (GRIP1-6) | BI (GRIP2-3) | LogKD (GRIP2-3) | BI (LIN7B-1) | LogKD (LIN7B-1) | BI (GRIP1-1) | LogKD (GRIP1-1) | BI (GRIP2-4) | LogKD (GRIP2-4) | BI (GIPC2-1) |
| --- | --- | --- | --- | --- | --- | --- | --- | --- | --- | --- | --- | --- | --- | --- | --- | --- | --- | --- |
| CC[C@H](C)[C@H](NC(=O)[C@H](CCC(N)=O)NC(=O)[C@@H](NC(=O)[C@H](Cc1c[nH]cn1)NC(=O)[C@H](CCC(N)=O)NC(=O)[C@H](CC(=O)O)NC(=O)[C@H](CCC(=O)O)NC(=O)[C@H](CC(=O)O)NC(=O)CCC(=O)NCCCOCCOCCOCCCNC(=O)CCCC[C@@H]1SC[C@@H]2NC(=O)N[C@@H]21)[C@@H](C)O)C(=O)N[C@H](C(=O)N[C@@H](CCCCNC(C)=O)C(=O)N[C@H](C(=O)O)C(C)C)[C@@H](C)O [PTEN_Ac] | 38.8 µM | 0.405 | 0.535 | 22.5 µM | 0.035 | 3.605 | 3.605 | -0.056 | 3.605 | 0.055 | 3.605 | -0.004 | 3.605 |  |  |  |  |  |
| CC[C@H](C)[C@H](NC(=O)[C@H](CCC(N)=O)NC(=O)[C@@H](NC(=O)[C@H](Cc1c[nH]cn1)NC(=O)[C@H](CCC(N)=O)NC(=O)[C@H](CC(=O)O)NC(=O)[C@H](CCC(=O)O)NC(=O)[C@H](CC(=O)O)NC(=O)CCC(=O)NCCCOCCOCCOCCCNC(=O)CCCC[C@@H]1SC[C@@H]2NC(=O)N[C@@H]21)[C@@H](C)O)C(=O)N[C@H](C(=O)N[C@@H](CCCCN)C(=O)N[C@H](C(=O)O)C(C)C)[C@@H](C)O [PTEN_11] |  | 0.094 | 0.392 | 50.3 µM | 0.042 | 3.519 |  | 0.065 | 3.519 | 0.054 | 3.519 | -0.046 | 3.519 | -0.021 | 3.519 | -0.019 | 3.519 |  |
| CC[C@H](C)[C@H](NC(=O)[C@H](CCC(N)=O)NC(=O)[C@@H](NC(=O)[C@H](Cc1c[nH]cn1)NC(=O)[C@H](CCC(N)=O)NC(=O)[C@H](CC(=O)O)NC(=O)[C@H](CCC(=O)O)NC(=O)[C@H](CC(=O)O)NC(=O)[C@H](Cc1ccccc1)NC(=O)[C@@H]1CCCN1C(=O)CCC(=O)NCCCOCCOCCOCCCNC(=O)CCCC[C@@H]1SC[C@@H]2NC(=O)N[C@@H]21)[C@@H](C)O)C(=O)N[C@H](C(=O)N[C@@H](CCCCN)C(=O)N[C@H](C(=O)O)C(C)C)[C@@H](C)O [PTEN_13] ({X1-Suc}-PFDEDQHTQITKV-OH) | 21.7 µM | 0.414 | 0.169 |  | -0.02 |  |  | 0.004 |  | 0.027 |  | -0.079 |  | -0.079 |  | -0.022 |  | -0.087 |
| CC[C@H](C)[C@H](NC(=O)[C@H](CCC(N)=O)NC(=O)[C@@H](NC(=O)[C@H](Cc1c[nH]cn1)NC(=O)[C@H](CCC(N)=O)NC(=O)[C@H](CC(=O)O)NC(=O)[C@H](CCC(=O)O)NC(=O)[C@H](CC(=O)O)NC(=O)CCC(=O)NCCCOCCOCCOCCCNC(=O)CCCC[C@@H]1SC[C@@H]2NC(=O)N[C@@H]21)[C@@H](C)O)C(=O)N[C@H](C(=O)N[C@@H](CCCNC(=N)N)C(=O)N[C@H](C(=O)O)C(C)C)[C@@H](C)O [PTEN_KR] ({X1-Suc}-DEDQHTQITRV-OH) |  | 0.445 | 0.433 | 30.5 µM | 0.02 | 3.655 | 3.655 | 0.038 | 3.655 | 0.027 | 3.655 | -0.078 | 3.655 | -0.163 | 3.655 | -0.019 | 3.655 |  |
